# Assay results taken from patent US20120230951A1 (priority 2011, published 2012).
# System: GT-1a pRLuc H771b 75 S/I subgenomic replicon cell line
# Test: HCV GT-1a replicon luciferase reporter assay
# Assay type: cell-based
# Details: Hepatitis C virus, GT1A, 72 h, read-out: GT-1a (IC50) (nM)
# In short: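 Huh-7-derived subgenomic replicon cells (GT-1b Con1 2209-23, 5000/well; GT-1a H77 chimera with Con1 NS3 first 75 aa, 3000/well) in 5% FBS DMEM; compounds added 24 h post-plating, 3-fold dilutions, 1% DMSO. Renilla luciferase read after 72 h; EC50 is 50% signal reduction versus untreated, non-linear fit.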
row,Compound,IC50 [nM]
1,COC(=O)N[C@H]1CCc2cccc3c2N(C1=O)[C@H](c1ncc(-c2ccc(-c4ccc(-c5cnc([C@@H]6CCCN6C(=O)[C@@H](NC(=O)OC)C6CC6)[nH]5)cc4)cc2)[nH]1)C3 [Compound I-44],11.4
2,CC[C@H](NC(=O)OC)C(=O)N1CCC[C@H]1c1ncc(-c2ccc(-c3ccc(-c4cnc([C@@H]5Cc6cccc7c6N5C(=O)[C@@H](NC(=O)OC)CC7)[nH]4)cc3)cc2)[nH]1 [Compound I-45],17.1
3,COCC[C@H](NC(=O)OC)C(=O)N1CCC[C@H]1c1ncc(-c2ccc(-c3ccc(-c4cnc([C@@H]5Cc6cccc7c6N5C(=O)[C@@H](NC(=O)OC)CC7)[nH]4)cc3)cc2)[nH]1 [Compound I-46],2.96
4,COC(=O)N[C@H]1CCc2cccc3c2N(C1=O)[C@H](c1ncc(-c2ccc(-c4ccc(-c5cnc([C@@H]6CCCN6C(=O)C6(NC(=O)OC)COC6)[nH]5)cc4)cc2)[nH]1)C3 [Compound I-47],110
5,COC(=O)NC(C(=O)N1CCC[C@H]1c1ncc(-c2ccc(-c3ccc(-c4cnc([C@@H]5Cc6cccc7c6N5C(=O)[C@@H](NC(=O)OC)CC7)[nH]4)cc3)cc2)[nH]1)C1CCOCC1 (stereo partly drawn) [Compound I-48],2.83
6,"COC(=O)N[C@@H](C)C(=O)N1CCC[C@H]1c1ncc(-c2ccc(-c3ccc(-c4cnc([C@@H]5Cc6cccc7c6N5C(=O)[C@@H](NC(=O)OC)CC7)[nH]4)cc3)cc2)[nH]1 [Compound I-49, {(2S,5S)-2-[5-(4-{2-[(S)-1-((S)-2-Methoxycarbonylamino-propionyl)-pyrolidin-2-yl]-3H-imidazol-4-yl}-biphenyl-4-yl)-1H-imidazol-2-yl]-4-oxo-1,2,4,5,6,7-hexahydro-azepino[3,2,1-hi]indol-5-yl}-carbamic acid methyl ester]",3.91
7,"CC[C@H](C)[C@H](NC(=O)OC)C(=O)N1CCC[C@H]1c1ncc(-c2ccc3nc(-c4ccc(-c5cnc([C@@H]6Cc7cccc8c7N6C(=O)[C@@H](NC(=O)OC)CC8)[nH]5)cc4)cnc3c2)[nH]1 [Compound I-53, ((2S,5S)-2-{5-[4-(6-{2-[(S)-1-((2S,3S)-2-Methoxycarbonylamino-3-methyl-pentanoyl)-pyrrolidin-2-yl]-3H-imidazol-4-yl}-quinoxalin-2-yl)-phenyl]-1H-imidazol-2-yl}-4-oxo-1,2,4,5,6,7-hexahydroazepino[3,2,1-hi]indol-5yl)-carbamic acid methyl ester]",1.36
8,"COC(=O)N[C@H]1CCc2cccc3c2N(C1=O)[C@H](c1ncc(-c2ccc(-c4cnc5cc(-c6cnc([C@@H]7CCCN7C(=O)[C@@H](NC(=O)OC)C(C)(C)C)[nH]6)ccc5n4)cc2)[nH]1)C3 [Compound I-54, ((2S,5S)-2-{5-[4-(6-{2-[(S)-1-((S)-2-Methoxycarbonylamino-3,3-dimethyl-butyryl)-pyrrolidin-2-yl]-3H-imidazol-4-yl}-quinoxalin-2-yl)-phenyl]-1H-imidazol-2-yl}-4-oxo-1,2,4,5,6,7-hexahydro-azepino[3,2,1-hi]indol-5-yl)-carbamic acid methyl ester]",0.949
9,"CC[C@H](C)[C@H](NC(=O)OC)C(=O)N1CCC[C@H]1c1ncc(-c2ccc(-c3cnc4cc(-c5cnc([C@@H]6Cc7cccc8c7N6C(=O)[C@@H](NC(=O)OC)CC8)[nH]5)ccc4n3)cc2)[nH]1 [Compound I-56, ((2S,5S)-2-{5-[2-(4-{2-[(S)-1-((2S,3S)-2-Methoxycarbonylamino-3 methyl-pentanoyl)-pyrrolidin-2-yl]-3H-imidazol-4-yl}-phenyl)quinoxalin-6-yl]-1H-imidazol-2-yl}-4-oxo-1,2,4,5,6,7-hexahydro-azepino[3,2,1-hi]indol-5-yl)-carbamic acid methyl ester]",3
10,"COC(=O)N[C@H]1CCc2cccc3c2N(C1=O)[C@H](c1ncc(-c2ccc(-c4ncc(-c5cnc([C@@H]6CC(F)(F)CN6C(=O)[C@@H](NC(=O)OC)C(C)C)[nH]5)cn4)cc2)[nH]1)C3 [Compound I-57, ((2S,5S)-2-{4-[4-(5-{2-[(S)-4,4-Difluoro-1-(2-methoxycarbonylamino-3-methyl-butyryl)-pyrrolidin-2-yl]-3H-imidazol-4-yl}-pyrimidin-2-yl)-phenyl]-1H-imidazol-2-yl}-4-oxo-1,2,4,5,6,7-hexahydro-azepino[3,2,1-hi]indol-5-yl)-carbamic acid methyl ester]",17.1
11,"CC[C@H](C)[C@H](NC(=O)OC)C(=O)N1CC(F)(F)C[C@H]1c1ncc(-c2cnc(-c3ccc(-c4cnc([C@@H]5Cc6cccc7c6N5C(=O)[C@@H](NC(=O)OC)CC7)[nH]4)cc3)nc2)[nH]1 [Compound I-58, ((1S,2S)-1-{(S)-4,4-Difluoro-2-[5-(2-{4-[2-((2S,5S)-5-methoxycarbonylamino-4-oxo-1,2,4,5,6,7-hexahydro-azepino[3,2,1-hi]indol-2-yl)-1H-imidazol-4-yl]-phenyl}-pyrimidin-5-yl)-1H-imidazol-2-yl]-pyrrolidine-1-carbonyl}-2-methyl-butyl)-carbamic acid methyl ester]",26.1
12,"COC(=O)N[C@H]1CCc2cccc3c2N(C1=O)[C@H](c1ncc(-c2ccc(-c4ccc(-c5nnc([C@@H]6CCCN6C(=O)[C@H](NC(=O)OC)c6ccccc6)[nH]5)cc4)cc2)[nH]1)C3 [Compound I-60, {(2S,5S)-2-[5-(4′-{5-[(S)-1-((R)-2-Methoxycarbonylamino-2-phenyl-acetyl)-pyrrolidin-2-yl]-4H-[1,2,4]triazol-3-yl}-biphenyl-4-yl)-1H-imidazol-2-yl]-4-oxo-1,2,4,5,6,7-hexahydro-azepino[3,2,1-hi]indol-5-yl}-carbamic acid methyl ester]",51.4
13,"COC(=O)N[C@H]1CCc2cccc3c2N(C1=O)[C@H](c1ncc(-c2ccc(-c4ccc(-c5nnc([C@@H]6CCCN6C(=O)[C@@H](NC(=O)OC)C(C)C)[nH]5)cc4)cc2)[nH]1)C3 [Compound I-61, {(2S,5S)-2-[5-(4′-{5-[(S)-1-((S)-2-Methoxycarbonylamino-3-methyl-butyryl)-pyrrolidin-2-yl]-4H-[1,2,4]triazol-3-yl}-biphenyl-4-yl)-1H-imidazol-2-yl]-4-oxo-1,2,4,5,6,7-hexahydro-azepino[3,2,1-hi]indol-5-yl}-carbamic acid methyl ester]",67.2
14,"COC(=O)N[C@H]1CCc2cccc3c2N(C1=O)[C@H](c1ncc(-c2ccc(-c4ccc(-c5cnc([C@@H]6COCCN6C(=O)[C@@H](NC(=O)OC)C(C)C)[nH]5)cc4)cc2)[nH]1)C3 [Compound I-64, {(2S,5S)-2-[5-(4′-{2-[(R)-4-((S)-2-Methoxycarbonylamino-3-methyl-butyryl)-morpholin-3-yl]-3H-imidazol-4-yl}-biphenyl-4-yl)-1H-imidazol-2-yl]-4-oxo-1,2,4,5,6,7-hexahydro-azepino[3,2,1-hi]indol-5-yl}-carbamic acid methyl ester]",9.87
15,"COC(=O)N[C@H]1CCc2cccc3c2N(C1=O)[C@H](c1ncc(-c2ccc(-c4ccc(-c5cnc(C6C7CC7CN6C(=O)[C@H](NC(=O)OC)c6ccccc6)[nH]5)cc4)cc2)[nH]1)C3 (stereo partly drawn) [Compound I-65, {(2S,5S)-2-[5-(4′-{2-[(S)-3-((R)-2-Methoxycarbonylamino-2-phenyl-acetyl)-3-aza-bicyclo[3.1.0]hex-2-yl]-3H-imidazol-4-yl}-biphenyl-4-yl)-1H-imidazol-2-yl]-4-oxo-1,2,4,5,6,7-hexahydro-azepino[3,2,1-hi]indol-5-yl}-carbamic acid methyl ester]",67.2
